According to US20240400579A1, “SPIROCYCLIC MODULATORS OF CHOLESTEROL BIOSYNTHESIS AND THEIR USE FOR PROMOTING REMYELINATION” (GENENTECH, INC., priority 2021, published 2024):
Read-outs that look alike come from different tables or passages of the source.

How the values were obtained:
EpiSC-derived OPCs = assay: In vitro phenotypic screening of OPCs, MBP high-content imaging; assay type: cell-based, mouse; conditions: percentage of MBP+ oligodendrocytes, 3 days, 0.5 nM to 1000 nM, read-out: mOPC EC50
Method: (§1) To assess effects of treatments on OPCs, all treatments were assayed in two or more independent platings of epiblast stem cell-derived OPCs (EpiSC). EpiSC-derived OPCs were obtained using in vitro differentiation protocols and culture conditions described previously (Najm et al, 2011, Nature Methods). OPCs were expanded and frozen down in aliquots. OPCs were thawed into growth conditions for at least one passage before use in further assays.
EpiSC-derived OPCs were grown and expanded in poly-L-ornithine (PO) and laminin-coated flasks in N2B27 media (DMEM/F12 (Gibco), N2-MAX (R&D Systems), B-27 (ThermoFisher), and GlutaMax (Gibco)) supplemented with FGF2 ([…], R&D systems, 233-FB-025) and PDGF-AA ([…], R&D systems, 233-AA-050) before harvesting for experiments. The cells were seeded onto poly-L-ornithine or poly-D-lysine coated CellCarrier Ultra plates (PerkinElmer) coated with laminin (Sigma, L2020) at a density of 150,000/cm^2 in N2B27 media without growth factors. For dose-response testing, a 1000× compound stock in dimethyl sulphoxide (DMSO) was added to assay plates, resulting in 8-point dose curves with final concentrations between 1000 nM and 0.5 nM. Positive controls and DMSO vehicle controls were included in each assay plate. Cells were incubated under standard conditions (37° C., 5% CO2) for 3 days and fixed with 4% paraformaldehyde (PFA) in phosphate buffered saline (PBS) for 20 min. Fixed plates were washed with PBS, permeabilized with 0.1% Triton X-100, and blocked with 10% donkey serum (v/v) in PBS for 40 min. Then, cells were labelled with MBP antibodies (Abcam, ab7349; 1:200) for 2 h at room temperature, washed with PBS, and stained with Alexa Fluor conjugated secondary antibodies (1:500) for 45 min. Nuclei were visualized by DAPI staining (Sigma; 1 μg/ml), followed by further PBS washes.
Cells and cell culture plates were imaged on the Operetta High Content Imaging and Analysis system (PerkinElmer). Analysis (PerkinElmer Harmony and Columbus software) began by identifying intact nuclei stained by DAPI. The peri-nuclear region of each cell was then cross-referenced with the mature myelin protein (MBP) stain to identify oligodendrocyte nuclei, and from this the percentage of oligodendrocytes was calculated. EC50 values were calculated using The Levenberg-Marquardt algorithm to fit a Hill equation to dose-response data (0.5 nM to 1000 nM).

[1] = tested on: zymostenol accumulation in EpiSC-derived OPCs (EBP); assay: GC/MS-based sterol profiling, zymostenol accumulation; assay type: cell-based, mouse; conditions: 8 doses from 0.15 nM to 333 nM, read-out: mZymo GCMS EC50
Method: as §1
Sterols were monitored using a modified Folch wash protocol (Hubler et al, 2018, Nature). EpiSC-derived OPCs were plated at 100,000 cells per well in PO— and laminin-coated 96-well plates in N2B27 media without growth factors. After 24 hours, cells were rinsed with saline and plates were frozen. Cholesterol-d7 standard was then added to each well before drying under nitrogen stream and derivatization with 55 μl of bis(trimethylsilyl) trifluoroacetamide. After derivatization, 2 μl were analyzed by gas chromatography/mass spectrometry using an Agilent 5973 Network Mass Selective Detector equipped with a 6890 gas chromatograph system and a HP-5MS capillary column (30 m x 0.25 mm×[…]). Samples were analyzed in full scan mode using electron impact ionization; ion fragment peaks were integrated to calculate sterol abundance, and quantitation was relative to cholesterol-d7. The following ion fragments were used to quantitate each metabolite: cholesterol-d7 (465), FF-Mas (482), cholesterol (368), zymostenol (458), zymosterol (456), Desmosterol (456, 343), 7-dehydrocholesterol (456, 325), lanosterol (393), lathosterol (458), 14-dehydrozymostenol (456, 351). […] All standards were obtained from Avanti Polar Lipids unless otherwise indicated. Calibration curves were generated by injecting varying concentrations of sterol standards and maintaining a fixed amount of cholesterol-D7. For normalized zymostenol accumulation results, the total amount of zymostenol measured after drug treatment was divided by the total amount of zymostenol accumulated after 24 hr treatment with 100 nM positive control reference.

[2] = molecular target: human emopamil binding protein and human 7-dehydrocholesterol reductase co-expressing cell membrane (Homo sapiens (Human), UniProt Q15125); assay: hEBP-DHCR7 radioligand filtration binding assay with [3H]-Compound 118A*; conditions: radioligand [3H]-Compound 118A*; HEK293 membrane co-expressing hEBP and DHCR7
Method: Membrane Preparation: human emopamil binding protein and human 7-dehydrocholesterol reductase co-expressing cells were generated by transient transfecting host human embryonic kidney (HEK) 293 cells with 2 DNA constructs containing each protein's coding sequence. Cells were suspension cultured at 37° C. with 5% CO2 in […] 293 Expression Medium (Thermofisher). Whole cell membrane was prepared by harvesting the cell pellet, adding cold membrane buffer (50 mM Tris, pH7.5, 1× Roche COMPLETE EDTA-free protease inhibitor cocktail) 10 times volume of the cell pellets weight, lysing cell pellet on ice by using Dounce homogenizer, spinning at 200 g 4° C. for 15 min, collecting supernatant and spinning again at 25000 g 4° C. for 50 min, transferring pellet to Dounce homogenizer, re-suspending pellet by homogenizing in membrane buffer on ice to reach ˜25 mg/mL, then keeping whole cell membrane aliquots at −80° C.
Compounds were prepared in a 96-well U bottom plate using an Echo550 machine and 10 mM compound DMSO stock solution, followed by an 8-dose 5-fold serial dilutions protocol with final testing compound concentration ranging from 0.06 to 5000 nM, with DMSO back fill to 100 nL/well and n=2. […] The UniFilter-96 GF/B plates were pre-treated by adding 50 μl/well of 0.3% (v/v) PEI to UniFilter-96 GF/B plates. The plates were sealed and incubated at 4° C. for 3 hrs. Then, the plates were washed with ice-cold assay buffer 3 times. The radioligand binding assay was prepared by adding assay buffer diluted hEBP-DHCR7 membrane at 66.7 μg/ml x 150 μl/well into the 96-well compound plate to reach 10 μg membrane per well. Then, the assay buffer diluted [3H]-Compound 118A* was added at 25 nM×50 μl/well. Following this, the plate was centrifuged at 1000 rpm for 30 secs. The plate was then sealed and agitated at 600 rpm at 22° C. for 5 min, and then incubated at 22° C. for 3 hrs. The incubation was stopped by transferring the binding solution to the pre-treated UniFilter-96 GF/B plate, vacuum filtrated, and then washed four times with ice-cold assay buffer. Following this, the plates were dried at 37° C. for 45 min. The plates were then sealed at the bottom. 40 μl/well of scintillation cocktail was added to the plates. A MicroBeta2 microplate counter was then used to read the plate and analyze the data. For reference and test compounds, the results are expressed as % Inhibition, using the normalization equation: N=100-100×(U−C2)/(C1−C2), where U is the unknown value, C1 is the average of high controls, and C2 is the average value of low controls. The IC50 was determined by fitting percentage of inhibition as a function of compound concentrations with Hill equation using XLfit. Results are expressed as hEBP-DHCR7 Ki (uM) in Table 4. Ki was calculated as described above.

human emopamil binding protein and human 7-dehydrocholesterol reductase co-expressing cell membrane, sequence (Q15125 whole entry): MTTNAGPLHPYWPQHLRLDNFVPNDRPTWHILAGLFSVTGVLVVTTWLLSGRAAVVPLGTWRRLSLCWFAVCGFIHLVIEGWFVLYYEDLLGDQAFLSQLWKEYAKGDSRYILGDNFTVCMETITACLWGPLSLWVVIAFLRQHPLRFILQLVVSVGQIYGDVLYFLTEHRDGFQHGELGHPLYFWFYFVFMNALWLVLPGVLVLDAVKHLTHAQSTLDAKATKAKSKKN

Structure (SMILES)	EC50 (EpiSC-derived OPCs; Mus musculus, 72 h)	EC50 ([1]; Mus musculus, 24 h)	Ki [2]	EC50 (EpiSC-derived OPCs)	EC50 ([1]; 24 hours)
CC(Cc1ccc(C2CC2(C)C)cc1)CN1CCC2(C1)CS(=O)(=O)C2 (racemic) [Compound 102]	20 nM	2.5 nM	8.31 nM	–	–
O=S1(=O)CC2(CCN(CCOc3cnc([C@H]4CC[C@H](C(F)(F)F)CC4)c(Cl)c3)CC2)C1 [Compound 246, 7-(2-((5-Chloro-6-((trans)-4-(trifluoromethyl)cyclohexyl)pyridin-3-yl)oxy)ethyl)-2-thia-7-azaspiro[3.5]nonane 2,2-dioxide]	2.62 nM	1.26 nM	12.2 nM	–	–
CC(C)(CN1CCC2(CC1)CS(=O)(=O)C2)Oc1ccc(Cl)c(F)c1 [Compound 231, 7-(2-(4-Chloro-3-fluorophenoxy)-2-methylpropyl)-2-thia-7-azaspiro[3.5]nonane 2,2-dioxide]	0.9 nM	0.32 nM	7.31 nM	–	–
CC(C)(CN1CCC2(C1)CS(=O)(=O)C2)Oc1cccc(F)c1 [Example 127, 6-(2-(3-Fluorophenoxy)-2-methylpropyl)-2-thia-6-azaspiro[3.4]octane-2,2-dioxide]	15 nM	13 nM	21.3 nM	–	–
O=S1(=O)CCC2(CC1)CN(CCCc1ccc(C(F)(F)F)nc1)C2 [Compound 223, 2-(3-(6-(Trifluoromethyl)pyridin-3-yl)propyl)-7-thia-2-azaspiro[3.5]nonane 7,7-dioxide]	355 nM	120 nM	555 nM	–	–
C[C@@H](Cc1ccc(C(F)(F)F)cc1)CN1CCC2(CC1)CS(=O)(=O)C2 (single isomer, unassigned) [216A*]	1.4 nM	0.95 nM	9.98 nM	–	–
C[C@H](CN1CCC2(CC1)CS(=O)(=O)C2)Oc1ccc(F)c(F)c1 (single isomer, unassigned) [221B*]	–	–	10.6 nM	13 nM	4.6 nM
C[C@H](Cc1ccc(C2CCC2)cc1)CN1CCC2(C1)CS(=O)(=O)C2 (single isomer, unassigned) [109B*]	0.55 nM	0.4 nM	6.54 nM	–	–
CCC(C)(C)c1ccc(CCC(C)N2CCC3(C2)CS(=O)(=O)C3)cc1 (racemic) [Compound 105, 6-(4-(4-(tert-Pentyl)phenyl)butan-2-yl)-2-thia-6-azaspiro[3.4]octane 2,2-dioxide]	260 nM	66 nM	12.9 nM	–	–
C[C@@H](Cc1ccc(C(F)(F)F)nc1)CN1CCC2(CC1)CS(=O)(=O)C2 (single isomer, unassigned) [Example 203*]	22 nM	6.4 nM	51.9 nM	–	–
O=S1(=O)CC2(CCN(CCCc3ccc(F)c(F)c3)CC2)C1 [Compound 225, 7-(3-(3,4-Difluorophenyl)propyl)-2-thia-7-azaspiro[3.5]nonane 2,2-dioxide]	23.5 nM	12.2 nM	24.3 nM	–	–
C[C@@H](Cc1ccc(OC(F)(F)F)cc1)CN1CCC2(C1)CS(=O)(=O)C2 (single isomer, unassigned) [119A*]	0.72 nM	0.52 nM	7.27 nM	–	–
CC(Cc1ccc(C2CC2)cc1)CN1CCC2(C1)CS(=O)(=O)C2 (racemic) [Compound 108, 6-(3-(4-Cyclopropylphenyl)-2-methylpropyl)-2-thia-6-azaspiro[3.4]octane 2,2-dioxide]	7.5 nM	5.5 nM	9.72 nM	–	–
O=S1(=O)CCC2(CC1)CN(CCOc1ccc(F)c(F)c1)C2 [Compound 214, 2-(2-(3,4-Difluorophenoxy)ethyl)-7-thia-2-azaspiro[3.5]nonane 7,7-dioxide]	50.4 nM	15 nM	40.8 nM	–	–
O=S1(=O)CC2(CCN(CC[C@@H](F)c3ccc(C(F)(F)F)cc3)C2)C1 (single isomer, unassigned) [Compound 122A]	10 nM	1.5 nM	15.6 nM	–	–
C[C@@H](CN1CCC2(CC1)CS(=O)(=O)C2)Oc1ccc(C(F)(F)F)cc1 (single isomer, unassigned) [227A*]	7.6 nM	3.2 nM	15.3 nM	–	–
C[C@H](Cc1ccc(C(F)(F)F)nc1)CN1CCC2(CC1)CS(=O)(=O)C2 (single isomer, unassigned) [Compound 217]	26 nM	8.3 nM	39.6 nM	–	–
O=S1(=O)CC2(CCN(CCOc3ccc(F)c(F)c3)CC2)C1 [Example 158, 7-(2-(3,4-Difluorophenoxy)ethyl)-2-thia-7-azaspiro[3.5]nonane 2,2-dioxide]	2.9 nM	2 nM	10 nM	–	–
O=S1(=O)CC2(CCN(CC[C@@H](F)c3ccc(C(F)(F)F)nc3)CC2)C1 (single isomer, unassigned) [237B*]	69.1 nM	17 nM	117 nM	–	–
CC(C)(CN1CC2(CCS(=O)(=O)CC2)C1)Oc1ccc(C(F)(F)F)cc1 [Example 209, 2-(2-Methyl-2-(4-(trifluoromethyl)phenoxy)propyl)-7-thia-2-azaspiro[3.5]nonane 7,7-dioxide]	45 nM	9.9 nM	13.9 nM	–	–
C[C@H](Cc1ccc(C(F)(F)F)cc1)CN1CCC2(CC1)CS(=O)(=O)C2 (single isomer, unassigned) [216B*]	3.3 nM	0.99 nM	15.6 nM	–	–
